# Assay results reported in patent US12240816B2, “Deuterated compounds and uses thereof” (Aldeyra Therapeutics, Inc., priority 2015, dated 2025).
# Where “and” joins values, the source holds several entries; their conditions need not be identical. Equal values may be shown once. Entries after “also recorded” stand apart in the source; their conditions may differ. Read-outs that look alike come from different tables or passages of the source. Marks after values point to notes of the source that are not given here.
# Columns and labels:
# rat hippocampal cultures = experiment: cells; type: cell-based
# acetylcholinesterase (h) = acetylcholinesterase (h) (Homo sapiens, UniProt P22303); experiment: biochemical
# MT3 (ML2) = molecular target: T1, MT3 (ML2) (Mesocricetus auratus, UniProt A0ABM2YAB8); experiment: MT3 (ML2) (agonist radioligand) binding assay; conditions: MT3 (ML2)(h) (agonist radioligand), 1.0E−05M
# T1 sequence (A0ABM2YAB8 1-231): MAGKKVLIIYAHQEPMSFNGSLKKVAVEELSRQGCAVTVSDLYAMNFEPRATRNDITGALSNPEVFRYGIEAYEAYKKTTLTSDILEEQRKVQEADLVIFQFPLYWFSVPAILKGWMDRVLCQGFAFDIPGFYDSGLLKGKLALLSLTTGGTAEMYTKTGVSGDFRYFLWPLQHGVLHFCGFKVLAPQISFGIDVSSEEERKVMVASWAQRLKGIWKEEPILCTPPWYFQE
# MAO-A = MAO-A (Rattus norvegicus, UniProt P21396); experiment: MAO-A (antagonist radioligand) binding assay; conditions: 1.0E−05M
# [1] = molecular target: enzyme and uptake assay panel targets (Table 36) (Homo sapiens, UniProt P27338); experiment: biochemical; type: biochemical; conditions: MAO-B (h) recombinant enzyme; 1.0E−05M
# [2] = molecular target: enzyme and uptake assay panel targets (Table 36) (Mus musculus, UniProt P29477); experiment: biochemical; type: biochemical; conditions: inducible NOS; 1.0E−05M
# [3] = molecular target: enzyme and uptake assay panel targets (Table 36) (Homo sapiens, UniProt P06241); experiment: biochemical; type: biochemical; conditions: Fyn kinase (h); 1.0E−05M
# [4] = CFDA, Captisol formulation, 10 μM hydrogen peroxide, 5 h
# [5] = CFDA, DMSO formulation, 10 μM hydrogen peroxide, 5 h
# [6] = NS2 (CoreRx micro-milled, Captisol) 0.1 μM + 10 μM hydrogen peroxide, 5 h
# [7] = NS2 (CoreRx micro-milled, Captisol) 1 μM + 10 μM hydrogen peroxide, 5 h
# [8] = NS2 (CoreRx micro-milled, Captisol) 10 μM + 10 μM hydrogen peroxide, 5 h
# [9] = NS2 (CoreRx micro-milled, Captisol) 100 μM + 10 μM hydrogen peroxide, 5 h
# [10] = NS2 (CoreRx micro-milled, Captisol) 1 mM + 10 μM hydrogen peroxide, 5 h
# [11] = NS2 (CoreRx micro-milled, DMSO) 0.1 μM + 10 μM hydrogen peroxide, 5 h
# [12] = NS2 (CoreRx micro-milled, DMSO) 1 μM + 10 μM hydrogen peroxide, 5 h
# [13] = NS2 (CoreRx micro-milled, DMSO) 10 μM + 10 μM hydrogen peroxide, 5 h
# [14] = NS2 (CoreRx micro-milled, DMSO) 100 μM + 10 μM hydrogen peroxide, 5 h
# [15] = NS2 (CoreRx micro-milled, DMSO) 1 mM + 10 μM hydrogen peroxide, 5 h
# [16] = NS2 (J-Star non-milled, Captisol) 0.1 μM + 10 μM hydrogen peroxide, 5 h
# [17] = NS2 (J-Star non-milled, Captisol) 1 μM + 10 μM hydrogen peroxide, 5 h
# [18] = NS2 (J-Star non-milled, Captisol) 10 μM + 10 μM hydrogen peroxide, 5 h
# [19] = NS2 (J-Star non-milled, Captisol) 100 μM + 10 μM hydrogen peroxide, 5 h
# [20] = NS2 (J-Star non-milled, Captisol) 1 mM + 10 μM hydrogen peroxide, 5 h
# [21] = NS2 (J-Star non-milled, DMSO) 0.1 μM + 10 μM hydrogen peroxide, 5 h
# [22] = NS2 (J-Star non-milled, DMSO) 1 μM + 10 μM hydrogen peroxide, 5 h
# [23] = NS2 (J-Star non-milled, DMSO) 10 μM + 10 μM hydrogen peroxide, 5 h
# [24] = NS2 (J-Star non-milled, DMSO) 100 μM + 10 μM hydrogen peroxide, 5 h
# [25] = NS2 (J-Star non-milled, DMSO) 1 mM + 10 μM hydrogen peroxide, 5 h
# [26] = read-out: % Inhibition of Control Specific Binding 1st
# [27] = read-out: % Inhibition of Control Specific Binding 2nd
# [28] = read-out: % Inhibition of Control Specific Binding Mean
# enzyme and uptake assay panel targets (Table 36) (Homo sapiens, UniProt P06241), sequence (P06241 whole entry): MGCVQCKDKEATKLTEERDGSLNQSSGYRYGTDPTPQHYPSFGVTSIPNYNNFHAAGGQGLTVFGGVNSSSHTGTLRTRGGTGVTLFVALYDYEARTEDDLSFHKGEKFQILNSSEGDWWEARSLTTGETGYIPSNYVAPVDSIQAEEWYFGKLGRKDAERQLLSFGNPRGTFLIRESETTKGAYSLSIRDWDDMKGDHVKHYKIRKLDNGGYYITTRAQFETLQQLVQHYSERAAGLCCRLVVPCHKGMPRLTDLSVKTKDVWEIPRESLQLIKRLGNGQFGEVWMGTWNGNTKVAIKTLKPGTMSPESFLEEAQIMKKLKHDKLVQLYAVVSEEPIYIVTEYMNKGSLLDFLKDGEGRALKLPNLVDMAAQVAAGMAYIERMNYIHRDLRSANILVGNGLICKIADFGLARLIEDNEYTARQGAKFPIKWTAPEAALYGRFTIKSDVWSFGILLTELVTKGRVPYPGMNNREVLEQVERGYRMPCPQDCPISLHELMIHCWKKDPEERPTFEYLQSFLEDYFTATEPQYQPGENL
# enzyme and uptake assay panel targets (Table 36) (Mus musculus, UniProt P29477), sequence (P29477 whole entry): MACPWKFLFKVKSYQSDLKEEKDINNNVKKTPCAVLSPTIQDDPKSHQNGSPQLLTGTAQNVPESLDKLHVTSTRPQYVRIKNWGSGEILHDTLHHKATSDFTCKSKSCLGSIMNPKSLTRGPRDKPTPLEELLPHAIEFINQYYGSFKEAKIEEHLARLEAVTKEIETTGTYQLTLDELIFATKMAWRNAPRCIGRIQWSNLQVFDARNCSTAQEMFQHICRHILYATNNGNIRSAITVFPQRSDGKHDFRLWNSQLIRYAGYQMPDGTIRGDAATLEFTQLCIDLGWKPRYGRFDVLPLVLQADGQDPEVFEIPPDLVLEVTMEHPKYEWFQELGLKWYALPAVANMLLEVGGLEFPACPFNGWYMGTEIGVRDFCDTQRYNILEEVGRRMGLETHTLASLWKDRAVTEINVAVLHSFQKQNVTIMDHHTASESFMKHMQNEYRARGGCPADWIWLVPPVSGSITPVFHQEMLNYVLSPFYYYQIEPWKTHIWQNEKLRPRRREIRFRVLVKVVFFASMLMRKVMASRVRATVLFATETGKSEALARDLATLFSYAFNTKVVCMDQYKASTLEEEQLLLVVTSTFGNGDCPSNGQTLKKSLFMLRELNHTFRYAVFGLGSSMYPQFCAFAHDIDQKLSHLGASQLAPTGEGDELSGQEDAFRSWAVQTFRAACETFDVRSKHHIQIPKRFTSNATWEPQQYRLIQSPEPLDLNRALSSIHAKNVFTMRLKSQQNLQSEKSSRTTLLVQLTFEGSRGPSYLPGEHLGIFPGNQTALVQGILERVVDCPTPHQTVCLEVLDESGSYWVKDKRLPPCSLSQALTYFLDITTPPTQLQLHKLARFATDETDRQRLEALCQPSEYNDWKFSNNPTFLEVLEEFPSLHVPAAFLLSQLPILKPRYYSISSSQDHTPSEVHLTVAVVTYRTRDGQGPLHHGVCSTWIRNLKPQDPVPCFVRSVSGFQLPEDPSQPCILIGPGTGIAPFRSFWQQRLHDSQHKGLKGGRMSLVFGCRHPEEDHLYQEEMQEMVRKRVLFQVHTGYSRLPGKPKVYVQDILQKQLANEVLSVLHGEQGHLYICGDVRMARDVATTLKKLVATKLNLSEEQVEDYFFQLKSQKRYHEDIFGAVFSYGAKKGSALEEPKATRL
# acetylcholinesterase (h), sequence (P22303 32-614): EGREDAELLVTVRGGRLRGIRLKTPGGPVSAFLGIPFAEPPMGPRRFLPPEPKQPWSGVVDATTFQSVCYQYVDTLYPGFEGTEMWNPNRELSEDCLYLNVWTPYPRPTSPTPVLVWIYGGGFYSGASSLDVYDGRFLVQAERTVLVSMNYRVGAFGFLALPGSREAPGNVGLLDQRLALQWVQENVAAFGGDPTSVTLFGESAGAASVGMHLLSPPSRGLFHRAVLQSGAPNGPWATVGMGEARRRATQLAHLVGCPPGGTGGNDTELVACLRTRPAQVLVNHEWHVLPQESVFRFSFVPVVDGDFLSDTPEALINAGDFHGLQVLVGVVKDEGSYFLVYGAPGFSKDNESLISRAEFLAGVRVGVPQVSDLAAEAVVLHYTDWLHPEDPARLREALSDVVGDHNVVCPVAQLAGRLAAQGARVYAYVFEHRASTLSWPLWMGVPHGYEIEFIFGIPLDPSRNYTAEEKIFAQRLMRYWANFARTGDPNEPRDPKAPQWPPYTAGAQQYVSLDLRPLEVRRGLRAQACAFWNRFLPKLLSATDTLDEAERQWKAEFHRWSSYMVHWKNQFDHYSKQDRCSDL
# MAO-A, sequence (P21396 whole entry): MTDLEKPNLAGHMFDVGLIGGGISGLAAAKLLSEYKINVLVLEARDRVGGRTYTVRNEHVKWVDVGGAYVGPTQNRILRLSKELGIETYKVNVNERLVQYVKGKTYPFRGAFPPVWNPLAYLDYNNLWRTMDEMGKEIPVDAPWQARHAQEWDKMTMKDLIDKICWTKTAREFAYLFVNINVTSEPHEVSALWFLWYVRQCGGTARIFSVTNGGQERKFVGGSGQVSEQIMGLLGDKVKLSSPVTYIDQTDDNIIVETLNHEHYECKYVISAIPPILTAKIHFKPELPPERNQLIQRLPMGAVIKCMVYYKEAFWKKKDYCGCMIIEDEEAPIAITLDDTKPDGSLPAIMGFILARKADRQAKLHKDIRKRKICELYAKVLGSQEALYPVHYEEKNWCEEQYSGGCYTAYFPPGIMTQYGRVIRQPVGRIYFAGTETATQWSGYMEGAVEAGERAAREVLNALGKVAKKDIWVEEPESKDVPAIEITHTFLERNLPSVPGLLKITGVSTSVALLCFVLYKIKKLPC
# enzyme and uptake assay panel targets (Table 36) (Homo sapiens, UniProt P27338), sequence (P27338 whole entry): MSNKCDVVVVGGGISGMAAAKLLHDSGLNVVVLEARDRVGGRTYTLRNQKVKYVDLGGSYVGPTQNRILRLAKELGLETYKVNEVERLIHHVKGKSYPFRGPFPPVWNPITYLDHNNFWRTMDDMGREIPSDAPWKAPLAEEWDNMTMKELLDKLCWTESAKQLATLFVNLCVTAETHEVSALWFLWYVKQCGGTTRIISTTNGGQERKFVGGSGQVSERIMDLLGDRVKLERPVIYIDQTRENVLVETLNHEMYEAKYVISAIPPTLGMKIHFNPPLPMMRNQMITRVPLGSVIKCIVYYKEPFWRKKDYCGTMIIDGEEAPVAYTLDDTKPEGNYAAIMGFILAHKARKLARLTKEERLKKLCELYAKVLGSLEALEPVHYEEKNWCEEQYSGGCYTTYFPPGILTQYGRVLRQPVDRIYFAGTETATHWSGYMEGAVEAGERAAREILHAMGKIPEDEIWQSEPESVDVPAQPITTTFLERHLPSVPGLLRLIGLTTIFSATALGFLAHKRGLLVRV
smiles,measurement,setting,value
"CC(C)(O)c1nc2ccc(Cl)cc2cc1N [NS2, 2-(3-amino-6-chloroquinolin-2-yl)propan-2-ol]",metabolite profile,"rat hepatocytes; NS2, 120 min, rat hepatocytes","metabolized to M1, M7, and M8, with some unchanged NS2 remaining"
same,Peak Areas Rat,"rat hepatocytes; rat, 120 min, 3 μM",3.14E+08
same,Full Efficacy Concentration,rat hippocampal cultures; [4],100 µM
same,No effect Concentration,rat hippocampal cultures; [4],1 µM
same,EC50,"rat hippocampal cultures; CFDA, Captisol formulation, 10 μM hydrogen peroxide, 5 h, listed as CoreRx NS2 (milled), read-out: EC50 ± SE",7 ± 4 µM
same,EC50,"rat hippocampal cultures; CFDA, Captisol formulation, 10 μM hydrogen peroxide, 5 h, listed as NS2 (J-Star), read-out: EC50 ± SE",9.1 µM
same,Full Efficacy Concentration,rat hippocampal cultures; [5],100 µM
same,No effect Concentration,rat hippocampal cultures; [5],1 µM
same,EC50,"rat hippocampal cultures; CFDA, DMSO formulation, 10 μM hydrogen peroxide, 5 h, values with * are estimates, listed as NS2 (CoreRx), read-out: EC50 ± SE",9.8 µM
same,EC50,"rat hippocampal cultures; CFDA, DMSO formulation, 10 μM hydrogen peroxide, 5 h, values with * are estimates, listed as NS2 (J-Star), read-out: EC50 ± SE",2.6 µM
same,Full protection concentration,"rat hippocampal cultures; CFDA, both NS2 formulations and both batches",100 µM
same,no effect concentration,"rat hippocampal cultures; CFDA, both formulations and batches",1 µM
same,% of Control (CFDA),rat hippocampal cultures; [6],58 ± 4%
same,"CFDA signal, Mean",rat hippocampal cultures; [6],26931
same,% of Control (CFDA),rat hippocampal cultures; [7],64 ± 6%
same,"CFDA signal, Mean",rat hippocampal cultures; [7],29693
same,% of Control (CFDA),rat hippocampal cultures; [8],80 ± 8%
same,"CFDA signal, Mean",rat hippocampal cultures; [8],37577*
same,% of Control (CFDA),rat hippocampal cultures; [9],100 ± 6%
same,"CFDA signal, Mean",rat hippocampal cultures; [9],46508*
same,% of Control (CFDA),rat hippocampal cultures; [10],92 ± 07%
same,"CFDA signal, Mean",rat hippocampal cultures; [10],42889*
same,% of Control (CFDA),rat hippocampal cultures; [11],61 ± 2%
same,"CFDA signal, Mean",rat hippocampal cultures; [11],26314
same,% of Control (CFDA),rat hippocampal cultures; [12],62 ± 6%
same,"CFDA signal, Mean",rat hippocampal cultures; [12],26633
same,% of Control (CFDA),rat hippocampal cultures; [13],79 ± 3%
same,"CFDA signal, Mean",rat hippocampal cultures; [13],34180*
same,"CFDA signal, replicate wells",rat hippocampal cultures; [13],32661 (3×) and 34496 and 38422
same,% of Control (CFDA),rat hippocampal cultures; [14],101 ± 6%
same,"CFDA signal, Mean",rat hippocampal cultures; [14],43328*
same,% of Control (CFDA),rat hippocampal cultures; [15],90 ± 3%
same,"CFDA signal, Mean",rat hippocampal cultures; [15],38622*
same,% of Control (CFDA),rat hippocampal cultures; [16],60 ± 4%
same,"CFDA signal, Mean",rat hippocampal cultures; [16],24142
same,% of Control (CFDA),rat hippocampal cultures; [17],61 ± 3%
same,"CFDA signal, Mean",rat hippocampal cultures; [17],24338
same,% of Control (CFDA),rat hippocampal cultures; [18],79± 6%
same,"CFDA signal, Mean",rat hippocampal cultures; [18],31811*
same,% of Control (CFDA),rat hippocampal cultures; [19],93 ± 9%
same,"CFDA signal, Mean",rat hippocampal cultures; [19],37544*
same,% of Control (CFDA),rat hippocampal cultures; [20],98 ± 3%
same,"CFDA signal, Mean",rat hippocampal cultures; [20],39516*
same,% of Control (CFDA),rat hippocampal cultures; [21],60 ± 4%
same,"CFDA signal, Mean",rat hippocampal cultures; [21],24819
same,% of Control (CFDA),rat hippocampal cultures; [22],66 ± 6%
same,"CFDA signal, Mean",rat hippocampal cultures; [22],27524
same,% of Control (CFDA),rat hippocampal cultures; [23],85 ± 7%
same,"CFDA signal, Mean",rat hippocampal cultures; [23],35341*
same,% of Control (CFDA),rat hippocampal cultures; [24],96 ± 10%
same,"CFDA signal, Mean",rat hippocampal cultures; [24],39844*
same,% of Control (CFDA),rat hippocampal cultures; [25],88 ± 10%
same,"CFDA signal, Mean",rat hippocampal cultures; [25],36632*
same,EC50,"rat hippocampal cultures; Rattus norvegicus, 5 h, CFDA, Captisol formulation, 10 μM hydrogen peroxide, 5 h, read-out: EC50 ± SE",6.8 µM
same,EC50,"rat hippocampal cultures; Rattus norvegicus, CFDA, across formulations and batches, read-out: EC50 range",3 to 10 µM
same,metabolite profile,"monkey hepatocytes; NS2, 120 min, monkey hepatocytes","metabolized to M1, M3, M4, M7, M8, and a low amount of M9, with some unchanged NS2 remaining; also recorded: a mono-oxidation metabolite (M), four oxidation+glucuronidation metabolites (M3, M4, M7, and M9), and a glucuronidation metabolite (M)"
same,Peak Areas Cyno Monkey,"monkey hepatocytes; cynomolgus monkey, 120 min, 3 μM",1.74E+08
[2H]C([2H])([2H])C(O)(c1nc2ccc(Cl)cc2cc1N)C([2H])([2H])[2H] [Compound I-1],inhibition at 10 µM,acetylcholinesterase (h); read-out: % inhibition of Control Values 1st,45.8%
same,inhibition at 10 µM,acetylcholinesterase (h); read-out: % inhibition of Control Values 2nd,60.1%
same,inhibition at 10 µM,acetylcholinesterase (h); read-out: % inhibition of Control Values Mean,52.9%
same,inhibition at 10 µM,MT3 (ML2); [26],69%
same,inhibition at 10 µM,MT3 (ML2); [27],73.3%
same,inhibition at 10 µM,MT3 (ML2); [28],71.1%
same,inhibition at 10 µM,MAO-A; [26],66.4%
same,inhibition at 10 µM,MAO-A; [27],70.7%
same,inhibition at 10 µM,MAO-A; [28],68.5%
same,% inhibition of Control Values 1st,[1],−3.1%
same,% inhibition of Control Values 2nd,[1],−3.7%
same,% inhibition of Control Values Mean,[1],−3.4%
same,% inhibition of Control Values 1st,[2],2.8%
same,% inhibition of Control Values 2nd,[2],−2.0%
same,% inhibition of Control Values Mean,[2],0.4%
same,% inhibition of Control Values 1st,[3],−8.6%
same,% inhibition of Control Values 2nd,[3],−0.3%
same,% inhibition of Control Values Mean,[3],−4.5%
